Measured values as given in patent US20230399311A1, “POLYMORPHS OF SUBSTITUTED ISOQUINOLINE-BASED RHO KINASE INHIBITORS” (BioAxone BioSciences, Inc., priority 2022, published 2023).

How the values were obtained:
[1] = Partition coefficient, octanol/water; type: physicochemical
Experimental: The partition coefficient of NRL-1049 adipate was determined according to the following procedure. In a 500 mL separation funnel, 120 mL water and 120 mL octanol were combined, mixed well, and allowed to separate into two layers. Approximately 100 mL of the organic phase layer and approximately 100 mL from the aqueous phase layer were removed and utilized in the following steps. Three 100 mL separation funnels were labeled as Sample 1, Sample 2, and Sample 3. […] The P values were as follows: Sample 1=0.0053, Sample 2=0.0049, Sample 3=0.0050.

[2] = pH-dependent stability in buffer solutions; type: physicochemical
Experimental: The solutions were stored in vials at 25° C., 40° C., and 60° C. […] Purity was measured by HPLC.

C[C@@H](N)C1CCN(S(=O)(=O)c2cccc3cnccc23)CC1.O=C(O)CCCCC(=O)O [NRL-1049 Adipate]
Partition coefficient P (organic phase/aqueous phase) ([1]; Sample 1: 40 mL aqueous phase, 10 mL organic phase (octanol/water)): 0.0053
Partition coefficient P (organic phase/aqueous phase) ([1]; Sample 2: 25 mL aqueous phase, 25 mL organic phase (octanol/water)): 0.0049
Partition coefficient P (organic phase/aqueous phase) ([1]; Sample 3: 10 mL aqueous phase, 40 mL organic phase (octanol/water)): 0.0050
Hydrophilicity (in words) ([1]; from octanol/water P values): highly hydrophilic
Appearance ([2]; Acetate Buffer, 1 Wk, 25° C.): No change
Purity (% Area) ([2]; Acetate Buffer, 1 Wk, 25° C.): 99.7 % Area
pH ([2]; Acetate Buffer, 1 Wk, 25° C.): 4.8
Appearance ([2]; Acetate Buffer, 1 Wk, 40° C.): No change
Purity (% Area) ([2]; Acetate Buffer, 1 Wk, 40° C.): 99.7 % Area
pH ([2]; Acetate Buffer, 1 Wk, 40° C.): 4.7
Appearance ([2]; Acetate Buffer, 1 Wk, 60° C.): No change
Purity (% Area) ([2]; Acetate Buffer, 1 Wk, 60° C.): 99.8 % Area
pH ([2]; Acetate Buffer, 1 Wk, 60° C.): 4.7
Appearance ([2]; Acetate Buffer, 2 Wk, 25° C.): No change
Purity (% Area) ([2]; Acetate Buffer, 2 Wk, 25° C.): 99.7 % Area
pH ([2]; Acetate Buffer, 2 Wk, 25° C.): 4.6
Appearance ([2]; Acetate Buffer, 2 Wk, 40° C.): No change
Purity (% Area) ([2]; Acetate Buffer, 2 Wk, 40° C.): 99.7 % Area
pH ([2]; Acetate Buffer, 2 Wk, 40° C.): 4.5
Appearance ([2]; Acetate Buffer, 2 Wk, 60° C.): No change
Purity (% Area) ([2]; Acetate Buffer, 2 Wk, 60° C.): 99.7 % Area
pH ([2]; Acetate Buffer, 2 Wk, 60° C.): 4.5
Appearance ([2]; Acetate Buffer, 3 Wk, 25° C.): No change
Purity (% Area) ([2]; Acetate Buffer, 3 Wk, 25° C.): 99.6 % Area
pH ([2]; Acetate Buffer, 3 Wk, 25° C.): 4.6
Appearance ([2]; Acetate Buffer, 3 Wk, 40° C.): No change
Purity (% Area) ([2]; Acetate Buffer, 3 Wk, 40° C.): 99.7 % Area
pH ([2]; Acetate Buffer, 3 Wk, 40° C.): 4.5
Appearance ([2]; Acetate Buffer, 3 Wk, 60° C.): No change
Purity (% Area) ([2]; Acetate Buffer, 3 Wk, 60° C.): 99.6 % Area
pH ([2]; Acetate Buffer, 3 Wk, 60° C.): 4.5
Appearance ([2]; Acetate Buffer, Time 0): Clear
Purity (% Area) ([2]; Acetate Buffer, Time 0): 99.8 % Area
pH ([2]; Acetate Buffer, Time 0): 4.6
Appearance ([2]; Hydroxide Buffer, 1 Wk, 25° C.): No change
Purity (% Area) ([2]; Hydroxide Buffer, 1 Wk, 25° C.): 99.7 % Area
pH ([2]; Hydroxide Buffer, 1 Wk, 25° C.): 1.4
Appearance ([2]; Hydroxide Buffer, 1 Wk, 40° C.): No change
Purity (% Area) ([2]; Hydroxide Buffer, 1 Wk, 40° C.): 99.8 % Area
pH ([2]; Hydroxide Buffer, 1 Wk, 40° C.): 1.4
Appearance ([2]; Hydroxide Buffer, 1 Wk, 60° C.): No change
Purity (% Area) ([2]; Hydroxide Buffer, 1 Wk, 60° C.): 99.6 % Area
pH ([2]; Hydroxide Buffer, 1 Wk, 60° C.): 1.3
Appearance ([2]; Hydroxide Buffer, 2 Wk, 25° C.): No change
Purity (% Area) ([2]; Hydroxide Buffer, 2 Wk, 25° C.): 99.7 % Area
pH ([2]; Hydroxide Buffer, 2 Wk, 25° C.): 1.4
Appearance ([2]; Hydroxide Buffer, 2 Wk, 40° C.): No change
Purity (% Area) ([2]; Hydroxide Buffer, 2 Wk, 40° C.): 99.6 % Area
pH ([2]; Hydroxide Buffer, 2 Wk, 40° C.): 1.4
Appearance ([2]; Hydroxide Buffer, 2 Wk, 60° C.): No change
Purity (% Area) ([2]; Hydroxide Buffer, 2 Wk, 60° C.): 99.6 % Area
pH ([2]; Hydroxide Buffer, 2 Wk, 60° C.): 1.3
Appearance ([2]; Hydroxide Buffer, 3 Wk, 25° C.): No change
Purity (% Area) ([2]; Hydroxide Buffer, 3 Wk, 25° C.): 99.6 % Area
pH ([2]; Hydroxide Buffer, 3 Wk, 25° C.): 1.4
Appearance ([2]; Hydroxide Buffer, 3 Wk, 40° C.): No change
Purity (% Area) ([2]; Hydroxide Buffer, 3 Wk, 40° C.): 99.6 % Area
pH ([2]; Hydroxide Buffer, 3 Wk, 40° C.): 1.4
Appearance ([2]; Hydroxide Buffer, 3 Wk, 60° C.): No change
Purity (% Area) ([2]; Hydroxide Buffer, 3 Wk, 60° C.): 99.6 % Area
pH ([2]; Hydroxide Buffer, 3 Wk, 60° C.): 1.3
Appearance ([2]; Hydroxide Buffer, Time 0): Clear
Purity (% Area) ([2]; Hydroxide Buffer, Time 0): 99.7 % Area
pH ([2]; Hydroxide Buffer, Time 0): 1.3
Appearance ([2]; Phosphate Buffer, 1 Wk, 25° C.): No change
Purity (% Area) ([2]; Phosphate Buffer, 1 Wk, 25° C.): 99.4 % Area
pH ([2]; Phosphate Buffer, 1 Wk, 25° C.): 7.0
Appearance ([2]; Phosphate Buffer, 1 Wk, 40° C.): No change
Purity (% Area) ([2]; Phosphate Buffer, 1 Wk, 40° C.): 95.9 % Area
pH ([2]; Phosphate Buffer, 1 Wk, 40° C.): 7.0
Appearance ([2]; Phosphate Buffer, 1 Wk, 60° C.): No change
Purity (% Area) ([2]; Phosphate Buffer, 1 Wk, 60° C.): 91.3 % Area
pH ([2]; Phosphate Buffer, 1 Wk, 60° C.): 6.9
Appearance ([2]; Phosphate Buffer, 2 Wk, 25° C.): No change
Purity (% Area) ([2]; Phosphate Buffer, 2 Wk, 25° C.): 95.4 % Area
pH ([2]; Phosphate Buffer, 2 Wk, 25° C.): 6.7
Appearance ([2]; Phosphate Buffer, 2 Wk, 40° C.): No change
Purity (% Area) ([2]; Phosphate Buffer, 2 Wk, 40° C.): 94.4 % Area
pH ([2]; Phosphate Buffer, 2 Wk, 40° C.): 6.7
Appearance ([2]; Phosphate Buffer, 2 Wk, 60° C.): No change
Purity (% Area) ([2]; Phosphate Buffer, 2 Wk, 60° C.): 83.0 % Area
pH ([2]; Phosphate Buffer, 2 Wk, 60° C.): 6.7
Appearance ([2]; Phosphate Buffer, 3 Wk, 25° C.): No change
Purity (% Area) ([2]; Phosphate Buffer, 3 Wk, 25° C.): 94.9 % Area
pH ([2]; Phosphate Buffer, 3 Wk, 25° C.): 6.7
Appearance ([2]; Phosphate Buffer, 3 Wk, 40° C.): No change
Purity (% Area) ([2]; Phosphate Buffer, 3 Wk, 40° C.): 91.4 % Area
pH ([2]; Phosphate Buffer, 3 Wk, 40° C.): 6.7
Appearance ([2]; Phosphate Buffer, 3 Wk, 60° C.): No change
Purity (% Area) ([2]; Phosphate Buffer, 3 Wk, 60° C.): 78.8 % Area
pH ([2]; Phosphate Buffer, 3 Wk, 60° C.): 6.8
Appearance ([2]; Phosphate Buffer, Time 0): Clear
Purity (% Area) ([2]; Phosphate Buffer, Time 0): 99.5 % Area
pH ([2]; Phosphate Buffer, Time 0): 6.7
Stability as a function of pH (in words) ([2]; pH 1.2 solution): most stable
Stability as a function of pH (in words) ([2]; pH 6.8 buffer): least stable
